Assay results taken from BindingDB's records for doi:10.1016/j.bmc.2013.10.054 (Punjabi University, 2014).

Target: T1, P2X purinoceptor 7 (Homo sapiens, UniProt Q99572)
T1 sequence (Q99572 whole entry): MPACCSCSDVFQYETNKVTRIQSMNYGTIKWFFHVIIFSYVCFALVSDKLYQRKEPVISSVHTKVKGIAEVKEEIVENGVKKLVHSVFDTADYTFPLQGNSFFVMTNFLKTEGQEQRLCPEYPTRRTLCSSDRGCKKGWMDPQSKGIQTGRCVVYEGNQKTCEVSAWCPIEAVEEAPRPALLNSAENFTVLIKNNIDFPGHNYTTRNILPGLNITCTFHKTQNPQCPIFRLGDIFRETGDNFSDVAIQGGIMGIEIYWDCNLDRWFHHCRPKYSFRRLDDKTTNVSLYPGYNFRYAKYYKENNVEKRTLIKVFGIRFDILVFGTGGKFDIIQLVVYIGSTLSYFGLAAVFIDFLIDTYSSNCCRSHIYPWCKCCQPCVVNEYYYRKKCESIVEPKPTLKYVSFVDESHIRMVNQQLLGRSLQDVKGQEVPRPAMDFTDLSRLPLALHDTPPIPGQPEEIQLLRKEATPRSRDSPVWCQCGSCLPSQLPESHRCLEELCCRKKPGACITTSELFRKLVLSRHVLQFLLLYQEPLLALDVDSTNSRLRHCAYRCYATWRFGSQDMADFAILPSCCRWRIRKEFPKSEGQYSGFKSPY
Assay: Antagonist activity at P2X7 receptor (unknown origin)

- IC50: < 1000 nM
Structure (SMILES): O=C(Cn1cc(O)n(-c2ccccc2)c1=O)NCc1ccc(F)cc1Cl
